Experimental data from publication PMC7413254 (Nature Communications, 2020).

Columns and labels:
Format in all cases: cell-based
PfCRT^Dd2 [1] = molecular target: T1, PfCRT^Dd2 (Plasmodium falciparum, UniProt Q9N623, A220S/I356T/K76T/M74I/N326S/N75E/Q271E/R371I); experiment: [3H]CQ uptake into Xenopus oocytes, cis-inhibition by unlabelled solute; details: PfCRTDd2 oocytes, background [3H]CQ accumulation subtracted, normalised to oocyte type control
Outline: (§1)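 Each treatment used ten oocytes, repeated in at least four experiments on different days with oocytes from different frogs. Conditions: ND96 pH 5.5, 27.5 °C, 1.5 h; read-out by scintillation counting.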

PfCRT^Ecu1110 [2] = molecular target: T2, PfCRT^Ecu1110 (Plasmodium falciparum, UniProt Q9N623, A220S/I356L/K76T/N326D); experiment: as above; details: for PfCRT-mediated [3H]CQ transport, cis-inhibition (% PfCRTEcu1110 control): PfCRTEcu1110 oocytes, background [3H]CQ accumulation subtracted, normalised to oocyte type control; for [3H]CQ transport (% PfCRTEcu1110 control), cis-inhibition, PfCRTEcu1110: PfCRT-mediated component (background subtracted), sheet title says normalised to PfCRTDd2 control, mean ± SEM, SEM
T2 sequence (Q9N623 whole entry A220S/I356L/K76T/N326D): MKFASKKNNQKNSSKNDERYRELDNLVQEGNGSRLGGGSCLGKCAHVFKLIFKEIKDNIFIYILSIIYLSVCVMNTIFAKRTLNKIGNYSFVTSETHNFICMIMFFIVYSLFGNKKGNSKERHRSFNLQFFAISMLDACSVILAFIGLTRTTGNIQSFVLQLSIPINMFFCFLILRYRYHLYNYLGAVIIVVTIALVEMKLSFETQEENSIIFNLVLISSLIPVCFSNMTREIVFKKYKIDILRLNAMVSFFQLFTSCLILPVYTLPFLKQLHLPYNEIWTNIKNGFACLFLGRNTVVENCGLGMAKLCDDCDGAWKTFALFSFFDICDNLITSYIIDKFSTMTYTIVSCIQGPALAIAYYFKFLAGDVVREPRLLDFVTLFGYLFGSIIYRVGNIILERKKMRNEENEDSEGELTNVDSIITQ
Outline: as §1

PfCRT^3D7 = PfCRT^3D7 (Plasmodium falciparum, UniProt Q8IBZ9); experiment: cell-based; details: PfCRT3D7 oocytes, normalised to oocyte type control
Sequence of PfCRT^3D7 (Q8IBZ9 59-398): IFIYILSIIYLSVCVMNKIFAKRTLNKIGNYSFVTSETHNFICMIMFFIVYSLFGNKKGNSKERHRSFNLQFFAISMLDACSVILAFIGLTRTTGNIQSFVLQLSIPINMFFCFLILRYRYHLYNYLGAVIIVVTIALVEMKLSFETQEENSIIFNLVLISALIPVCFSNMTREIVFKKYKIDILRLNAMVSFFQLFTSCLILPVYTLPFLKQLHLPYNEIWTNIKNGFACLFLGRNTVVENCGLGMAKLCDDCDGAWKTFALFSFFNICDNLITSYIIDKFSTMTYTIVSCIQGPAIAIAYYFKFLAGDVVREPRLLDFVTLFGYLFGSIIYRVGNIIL
Outline: (§2)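 Oocytes (ten per treatment, ≥4 independent frogs/days) were preloaded by injecting VF-6 in 25 nL ND96 at pH 5.0, 5.5, 6.0 or 7.0, or Na^+-free choline buffer, then uptake run 1.5 h, 27.5 °C, ND96 pH 5.5 by default. Internal concentrations assumed ~400 nL oocyte volume.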

PfCRT^Dd2 [3] = molecular target: T1, PfCRT^Dd2; experiment: cell-based; details: for PfCRT-mediated [3H]CQ transport, trans-stimulation (% PfCRTDd2 control): PfCRTDd2 oocytes, normalised to oocyte type control; for [3H]CQ transport (% PfCRTDd2 control), trans-stimulation, PfCRTDd2: PfCRT-mediated component (background subtracted), mean ± SEM, SEM
Outline: as §2

PfCRT^Ecu1110 [4] = molecular target: T2, PfCRT^Ecu1110; experiment: cell-based; details: for PfCRT-mediated [3H]CQ transport, trans-stimulation (% PfCRTEcu1110 control): PfCRTEcu1110 oocytes, normalised to oocyte type control; for [3H]CQ transport (% PfCRTDd2 control), trans-stimulation, PfCRTEcu1110: PfCRT-mediated component (background subtracted), sheet title says normalised to PfCRTDd2 control, mean ± SEM, SEM
Outline: as §2

[5] = [test solute]i = 5 mM (intracellular)
[6] = [test solute]i = 45 mM (intracellular; 30 mM for some solutes due to solubility)
[7] = [test solute]i = 5 mM (injected)
[8] = [test solute]i = 45 mM (30 mM for some solutes due to solubility)

T1 sequence (Q9N623 whole entry A220S/I356T/K76T/M74I/N326S/N75E/Q271E/R371I): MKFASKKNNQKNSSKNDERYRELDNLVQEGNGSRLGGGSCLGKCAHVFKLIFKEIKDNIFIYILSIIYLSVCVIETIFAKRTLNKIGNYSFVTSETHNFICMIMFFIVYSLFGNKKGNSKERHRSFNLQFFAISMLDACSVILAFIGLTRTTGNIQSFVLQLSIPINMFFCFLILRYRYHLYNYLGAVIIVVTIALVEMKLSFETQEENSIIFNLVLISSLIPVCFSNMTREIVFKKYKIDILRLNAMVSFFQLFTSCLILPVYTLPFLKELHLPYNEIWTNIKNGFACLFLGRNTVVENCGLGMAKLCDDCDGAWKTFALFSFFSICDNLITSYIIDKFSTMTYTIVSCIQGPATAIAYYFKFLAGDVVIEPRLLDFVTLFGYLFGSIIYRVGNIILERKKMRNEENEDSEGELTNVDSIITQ

| Substance | PfCRT-mediated [3H]CQ transport, cis-inhibition (% PfCRTDd2 control) (PfCRT^Dd2 [1]; [test solute] = 0.5 mM) | PfCRT-mediated [3H]CQ transport, cis-inhibition (% PfCRTDd2 control) (PfCRT^Dd2 [1]; [test solute] = 1 mM) | PfCRT-mediated [3H]CQ transport, cis-inhibition (% PfCRTDd2 control) (PfCRT^Dd2 [1]; [test solute] = 2 mM) | PfCRT-mediated [3H]CQ transport, cis-inhibition (% PfCRTEcu1110 control) (PfCRT^Ecu1110 [2]; [test solute] = 0.5 mM) | PfCRT-mediated [3H]CQ transport, cis-inhibition (% PfCRTEcu1110 control) (PfCRT^Ecu1110 [2]; [test solute] = 2 mM) | [3H]CQ transport (% PfCRTEcu1110 control), cis-inhibition, PfCRTEcu1110 (PfCRT^Ecu1110 [2]; [test solute] = 1 mM) [% PfCRTEcu1110 control] | [3H]CQ transport (% PfCRTEcu1110 control), cis-inhibition, PfCRTEcu1110 (PfCRT^Ecu1110 [2]; [test solute] = 2 mM) [% PfCRTEcu1110 control] | PfCRT-mediated [3H]CQ transport, trans-stimulation (% PfCRT3D7 control) (PfCRT^3D7; [5]) | PfCRT-mediated [3H]CQ transport, trans-stimulation (% PfCRT3D7 control) (PfCRT^3D7; [6]) | PfCRT-mediated [3H]CQ transport, trans-stimulation (% PfCRTDd2 control) (PfCRT^Dd2 [3]; [5]) | PfCRT-mediated [3H]CQ transport, trans-stimulation (% PfCRTDd2 control) (PfCRT^Dd2 [3]; [6]) | [3H]CQ transport (% PfCRTDd2 control), trans-stimulation, PfCRTDd2 (PfCRT^Dd2 [3]; [7]) [% PfCRTDd2 control] | [3H]CQ transport (% PfCRTDd2 control), trans-stimulation, PfCRTDd2 (PfCRT^Dd2 [3]; [8]) [% PfCRTDd2 control] | PfCRT-mediated [3H]CQ transport, trans-stimulation (% PfCRTEcu1110 control) (PfCRT^Ecu1110 [4]; [5]) | PfCRT-mediated [3H]CQ transport, trans-stimulation (% PfCRTEcu1110 control) (PfCRT^Ecu1110 [4]; [6]) | [3H]CQ transport (% PfCRTDd2 control), trans-stimulation, PfCRTEcu1110 (PfCRT^Ecu1110 [4]; [7]) [% PfCRTEcu1110 control] | [3H]CQ transport (% PfCRTDd2 control), trans-stimulation, PfCRTEcu1110 (PfCRT^Ecu1110 [4]; [8]) [% PfCRTEcu1110 control] | PfCRT-mediated [3H]CQ transport, cis-inhibition (% PfCRTEcu1110 control) (PfCRT^Ecu1110 [2]; [test solute] = 1 mM) |
| --- | --- | --- | --- | --- | --- | --- | --- | --- | --- | --- | --- | --- | --- | --- | --- | --- | --- | --- |
| HFDLS [HS-5] | 20 ± 0.1 | 9 ± 0.2 | 3.2 ± 0.1 | 20 ± 1.3 | 4.3 ± 0.1 | 3.0 ± 0.04 | 1.0 ± 0.06 | 139 ± 4.1 | 166 ± 3.2 | 100 ± 3.2 | 112 ± 1.1 | 100 ± 3.2 | 112 ± 1.1 | 120 ± 2.1 | 131 ± 1.8 | 36 ± 1.3 | 40 ± 1.4 | – |
| KEFTPPVQA [KA-9] | 48 ± 2.0 | 32 ± 2.1 | 7 ± 0.1 | 48 ± 2.1 | 30 ± 1.1 | – | – | 130 ± 2.2 | 160 ± 3.9 | 98 ± 2.2 | 98 ± 1.7 | – | – | 98 ± 2.8 | 98 ± 2.0 | – | – | 41 ± 2.1 |
| DPENFR [DR-6] | 38 ± 0.3 | 30 ± 1.0 | 17 ± 0.3 | 38 ± 1.3 | 27 ± 0.1 | 11 ± 0.1 | 9.0 ± 0.02 | 137 ± 4.6 | 188 ± 5.7 | 100 ± 3.7 | 112 ± 4.3 | 100 ± 3.7 | 112 ± 4.3 | 118 ± 0.6 | 127 ± 4.2 | 36 ± 1.4 | 38 ± 1.5 | 35 ± 4.2 |
| TPPVQ [TQ-5] | 50 ± 2.1 | 30 ± 2.1 | 15 ± 0.3 | 56 ± 3.1 | 42 ± 2.4 | 15 ± 0.1 | 13 ± 0.1 | 94 ± 3.5 | 96 ± 4.2 | 96 ± 3.2 | 97 ± 4.5 | 96 ± 3.2 | 97 ± 4.5 | 96 ± 3.5 | 96 ± 2.3 | 29 ± 1.6 | 30 ± 1.6 | 49 ± 2.6 |
| DTSLKPIS [DS-8] | 40 ± 2.2 | 28 ± 0.6 | 19 ± 0.3 | 57 ± 2.1 | 28 ± 1.3 | – | – | 135 ± 3.7 | 180 ± 3.4 | 95 ± 3.1 | 112 ± 1.2 | – | – | 127 ± 2.8 | 140 ± 4.1 | – | – | 42 ± 3.1 |
